Laboratory results published in patent publication US10752595B2, “Crystalline forms of a bromodomain and extraterminal protein inhibitor drug, processes for preparation thereof, and use thereof” (Crystal Pharmaceutical (Suzhou) Co., Ltd., priority 2016, dated 2020).
In brackets after ≈: the same amount, converted by molar mass. Entries after “also recorded” stand apart in the source; their conditions may differ.

What was measured:
BRD4 of BET family = BRD4 of BET family (Homo sapiens, UniProt O60885); conditions: background statement, regulates ApoA-1 expression; cited from earlier work
[1] = Solubility study: saturated solutions in SGF and FeSSIF, concentration by HPLC; format: physicochemical; conditions: for Solubility FeSSIF: FeSSIF (fed state simulated intestinal fluids, pH=5.0); for Solubility SGF: SGF (simulated gastric fluids)
Description: High Performance Liquid Chromatography (HPLC) data in the present disclosure were collected from an Agilent 1260 with Diode Array Detector (DAD). The HPLC method parameters for purity test in the present disclosure are as follows: • 1. Column: Waters XBridge C18 150×4.6 mm, 5 μm • 2. Mobile Phase: A: 0.1% TFA in H2O • B: 0.1% TFA in Acetonitrile
The prepared apabetalone Form CS2 was suspended into SGF (simulated gastric fluids) and FeSSIF (fed state simulated intestinal fluids, pH=5.0) to obtain saturated solutions. After being equilibrated for 1 h and 24 h, concentrations of the saturated solutions were measured by HPLC.
The prepared Form CS8 was suspended into SGF (simulated gastric fluids) and FeSSIF (fed state simulated intestinal fluids, pH=5.0) to obtain saturated solutions. After being equilibrated for 1 h, concentrations of the saturated solutions were measured by HPLC.
The prepared Form CS13 was suspended into SGF (simulated gastric fluids) and FeSSIF (fed state simulated intestinal fluids, pH=5.0) to obtain saturated solutions. After being equilibrated for 1 h, 4 h and 24 h, concentrations of the saturated solutions were measured by HPLC.
The prepared apabetalone Form CS20 was suspended into SGF (simulated gastric fluids) and FeSSIF (fed state simulated intestinal fluids, pH=5.0) to obtain saturated solutions. After being equilibrated for 1 h, 4 h and 24 h, concentrations of the saturated solutions were measured by HPLC.
The prepared solid of apabetalone Form CS1 was suspended into SGF (simulated gastric fluids) and FeSSIF (fed state simulated intestinal fluids, pH=5.0) to obtain saturated solutions. After being equilibrated for 1 h, 4 h and 24 h, concentrations of the saturated solutions were measured by HPLC.
The prepared solid of apabetalone Form CS7 was suspended into SGF (simulated gastric fluids) and FeSSIF (fed state simulated intestinal fluids, pH=5.0) to obtain saturated solutions. After being equilibrated for 1 h, 4 h and 24 h, concentrations of the saturated solutions were measured by HPLC.
The prepared solid of apabetalone Form CS9 was suspended into SGF (simulated gastric fluids) and FeSSIF (fed state simulated intestinal fluids, pH=5.0) to obtain saturated solutions. After being equilibrated for 1 h, 4 h and 24 h, concentrations of the saturated solutions were measured by HPLC.
The prepared solid of apabetalone Form CS11 was suspended into SGF (simulated gastric fluids) and FeSSIF (fed state simulated intestinal fluids, pH=5.0) to obtain saturated solutions. After being equilibrated for 1 h, 4 h and 24 h, concentrations of the saturated solutions were measured by HPLC.
The prepared solid of apabetalone Form CS4 was suspended into SGF (simulated gastric fluids) and FeSSIF (fed state simulated intestinal fluids, pH=5.0) to obtain saturated solutions. After being equilibrated for 1 h, 4 h and 24 h, concentrations of the saturated solutions were measured by HPLC.

[2] = Stability study: open-dish storage in constant temperature and humidity chambers, XRPD and purity check; format: physicochemical; conditions: for Form change and purity decrease after storage / Purity after storage: open dish
Description: Form CS8 was placed in a constant temperature and humidity chamber at 25° C./60% RH for 2 weeks in open dish. Crystalline form of the sample were tested by XRPD and impurity of the sample were checked. […] Crystalline form of the sample were tested by XRPD and impurity of the sample were checked. […] Two samples of apabetalone Form CS1 were placed in constant temperature and humidity chambers at 25° C./60% RH and 40° C./75% RH for 10 months in open dishes. The samples were characterized by XRPD and chemical impurity. […] Three samples of apabetalone Form CS7 were placed in constant temperature and humidity chambers at 25° C./60% RH and 40° C./75% RH for 4 weeks and 80° C. for 1 day in open dishes. Crystalline form of the sample were tested by XRPD and impurity of the sample were checked. […] Two samples of apabetalone Form CS9 were placed in constant temperature and humidity chambers at 25° C./60% RH and 40° C./75% RH for 10 months in open dishes. Crystalline form of the sample were tested by XRPD and impurity of the sample were tested to check the stability of Form CS9. […] Two samples of apabetalone Form CS11 were placed in constant temperature and humidity chambers at 25° C./60% RH and 40° C./75% RH for 6 weeks in open dishes. Crystalline form of the sample were tested by XRPD and impurity of the sample were tested to check the stability of Form CS11. […] Two samples of apabetalone Form CS4 were placed in open dishes in constant temperature and humidity chambers at 25° C./60% RH and 40° C./75% RH for 10 months. Crystalline form of the sample were tested by XRPD and impurity of the sample were tested to check the stability of Form CS4.

[3] = Hygroscopicity by dynamic vapor sorption (DVS); format: physicochemical; conditions: for Hygroscopicity class: Chinese Pharmacopoeia 2015 criteria, 80% RH; for Hygroscopicity class / Weight Gain under 80% Relative Humidity: 25° C.; for Weight Gain under 80% Relative Humidity: DVS, about 10 mg of sample; for Form change after DVS test (XRPD): XRPD before and after DVS test
Description: Dynamic Vapor Sorption (DVS) was measured via a SMS (Surface Measurement Systems Ltd.) intrinsic DVS instrument. Its control software is DVS—Intrinsic control software, and its analysis software is DVS—Intrinsic Analysis software. Typical Parameters for DVS test are as follows: • Temperature: 25° C. • Gas and flow rate: N2, 200 mL/min • dm/dt: 0.002%/min • RH range: 0% RH to 95% RH Dynamic vapor sorption (DVS) was applied to test hygroscopicity of Form CS8 in the present disclosure with about 10 mg of sample. […] Dynamic vapor sorption (DVS) was applied to test hygroscopicity of Form CS1 of the present disclosure with about 10 mg of sample. […] Dynamic vapor sorption (DVS) was applied to test hygroscopicity of Form CS7 of the present disclosure with about 10 mg of samples. Dynamic vapor sorption (DVS) was applied to test hygroscopicity of Form CS9 of the present disclosure with about 10 mg of sample. […] Dynamic vapor sorption (DVS) was applied to test hygroscopicity of Form CS4 of the present disclosure with about 10 mg of sample.

[4] = Mechanical stability: manual grinding for 5 minutes, XRPD; format: physicochemical; conditions: ground manually in a mortar for 5 minutes
Description: Certain amount of Form CS1 was placed in a mortar and ground manually for 5 minutes. XRPD of the solid obtained was tested. Certain amount of Form CS4 was placed in a mortar and ground manually for 5 minutes. Crystalline form of the sample was checked by XRPD.

[5] = Dissolution test of Form CS1 capsule; format: physicochemical; conditions: capsule with 50 mg API; HCl (0.1 mol/L), paddle, 900 mL, 75 rpm, 37° C.; at 20 minutes
Description: Certain amount of the API, microcrystalline cellulose, croscarmellose sodium according to Table 5.8 and 2 mg of magnesium stearate were weighted and blended for 2 minutes. Flakes were prepared using a manual tablet press at 5 KN pressure with a φ20 mm round tooling. The crushed flakes were manually sieved through 20 mesh sieve. 2 mg of magnesium stearate was added, and then the obtained powder was blended for 1 minute. The mixture was encapsulated into a 1# capsule shell, then the capsule was packed in 35 cc HDPE (high density polyethylene) bottle (one capsule per bottle) containing 1 g of desiccant. The bottle was then sealed by sealing machine. […] Dissolution test was performed on the obtained capsule. The conditions are as follows: Medium: HCl (0.1 mol/L) Method: Paddle Volume: 900 mL Speed: 75 rpm Temperature: 37° C.

[6] = Formulation study: form stability in the capsule preparation; format: physicochemical; conditions: capsule with microcrystalline cellulose, croscarmellose sodium, magnesium stearate
Description: Certain amount of the API, microcrystalline cellulose, croscarmellose sodium according to Table 5.8 and 2 mg of magnesium stearate were weighted and blended for 2 minutes. Flakes were prepared using a manual tablet press at 5 KN pressure with a φ20 mm round tooling. The crushed flakes were manually sieved through 20 mesh sieve. 2 mg of magnesium stearate was added, and then the obtained powder was blended for 1 minute. The mixture was encapsulated into a 1# capsule shell, then the capsule was packed in 35 cc HDPE (high density polyethylene) bottle (one capsule per bottle) containing 1 g of desiccant. The bottle was then sealed by sealing machine.

Row | Solubility FeSSIF ([1]; equilibrated 1 h) | Solubility FeSSIF ([1]; equilibrated 4 h) | Solubility FeSSIF ([1]; equilibrated 24 h) | Solubility SGF ([1]; equilibrated 1 h) | Solubility SGF ([1]; equilibrated 4 h) | Solubility SGF ([1]; equilibrated 24 h) | Time the form is stable when stored ([2]; 25° C./60% RH) | Purity after storage ([2]; 25° C./60% RH, 1 week) | Purity after storage ([2]; 25° C./60% RH, 2 weeks) | Purity after storage ([2]; 25° C./60% RH, 10 months) | Time the form is stable when stored ([2]; 40° C./75% RH) | Purity after storage ([2]; 40° C./75% RH, 1 week) | Purity after storage ([2]; 40° C./75% RH, 2 weeks) | Purity after storage ([2]; 40° C./75% RH, 10 months) | Hygroscopicity class [3] | Weight Gain under 80% Relative Humidity [3] | Compound | Form change and purity decrease after storage ([2]; 25° C./60% RH, 10 months) | Form change and purity decrease after storage ([2]; 40° C./75% RH, 10 months) | Form change after DVS test (XRPD) [3] | Form change and crystallinity decrease after manual grinding (XRPD) [4] | also measured
1 |  |  |  |  |  |  |  |  |  |  |  |  |  |  |  |  | COc1cc(OC)c2c(=O)[nH]c(-c3cc(C)c(OCCO)c(C)c3)nc2c1 [apabetalone, 2-[4-(2-hydroxyethoxy)-3,5-dimethylphenyl]-5,7-dimethoxyquinazolin-4(3H)-one] |  |  |  |  | Inhibition of BRD4 (BRD4 of BET family): can inhibit BRD4
2 | 140 µg/mL (≈ 378 µM) | 110 µg/mL (≈ 297 µM) | 140 µg/mL (≈ 378 µM) | 310 µg/mL (≈ 837 µM) | 290 µg/mL (≈ 783 µM) | 330 µg/mL (≈ 891 µM) | at least 10 months | 99.27 | 99.23 | 99.24 | at least 10 months | 99.20 | 99.20 | 99.21 | almost non hygroscopic | 0.13% | COc1cc(OC)c2c(=O)[nH]c(-c3cc(C)c(OCCO)c(C)c3)nc2c1 [Form CS1, 2-[4-(2-hydroxyethoxy)-3,5-dimethylphenyl]-5,7-dimethoxyquinazolin-4(3H)-one] | No form change and obvious purity decrease | No form change and obvious purity decrease | No form change; also recorded: doesn't change | no form change and obvious crystallity decrease; also recorded: doesn't change after manual grinding | Purity after storage ([2]; 25° C./60% RH, 5 weeks): 99.25; Purity after storage ([2]; 40° C./75% RH, 5 weeks): 99.25; Released amount in dissolution test [5]: more than 90%; Stability of the form in the preparations [6]: stable in the preparations
3 | 140 µg/mL (≈ 378 µM) | 100 µg/mL (≈ 270 µM) | 160 µg/mL (≈ 432 µM) | 300 µg/mL (≈ 810 µM) | 280 µg/mL (≈ 756 µM) | 380 µg/mL (≈ 1030 µM) | at least 10 months | 99.10 | 99.06 | 99.04 | at least 10 months | 99.10 | 98.99 | 99.02 | almost non hygroscopic | 0.12% | COc1cc(OC)c2c(=O)[nH]c(-c3cc(C)c(OCCO)c(C)c3)nc2c1 [Form CS4, 2-[4-(2-hydroxyethoxy)-3,5-dimethylphenyl]-5,7-dimethoxyquinazolin-4(3H)-one] | No form change and obvious purity decrease | No form change and obvious purity decrease | doesn't change; also recorded: No form change | doesn't change after manual grinding; also recorded: no form change and obvious crystalline decrease | Purity after storage ([2]; 25° C./60% RH, 4 weeks): 99.05; Purity after storage ([2]; 40° C./75% RH, 4 weeks): 99.04
